Several values for one entry are separate records, joined by “and”; a condition that tells them apart may be missing. Identical values can stand only once. Counter-ions that a name gives are not always drawn. Like-named read-outs stand apart in the source and are kept apart here.
What was measured:
rhα-Gal A [1] = target: T1, rhα-Gal A (Homo sapiens, UniProt P06280); test: In vitro stabilization of rhα-Gal A at neutral pH (thermal denaturation and activity); type: biochemical
T1 sequence (P06280 32-429): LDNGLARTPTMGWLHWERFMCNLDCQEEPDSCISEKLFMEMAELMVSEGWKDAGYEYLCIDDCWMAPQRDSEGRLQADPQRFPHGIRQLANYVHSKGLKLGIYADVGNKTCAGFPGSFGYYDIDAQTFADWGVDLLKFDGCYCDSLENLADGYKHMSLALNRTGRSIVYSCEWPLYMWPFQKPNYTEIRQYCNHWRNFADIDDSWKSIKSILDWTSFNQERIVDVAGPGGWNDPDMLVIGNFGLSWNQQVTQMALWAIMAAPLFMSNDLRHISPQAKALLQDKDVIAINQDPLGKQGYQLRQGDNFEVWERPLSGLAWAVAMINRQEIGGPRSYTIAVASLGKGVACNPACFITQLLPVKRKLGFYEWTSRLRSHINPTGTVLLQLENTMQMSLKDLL
Source text: Migalastat hydrochloride stabilizes wild-type α-Gal A in vitro and as well as in vivo.

rhα-Gal A [2] = target: T1, rhα-Gal A; test: Oral migalastat hydrochloride with rhα-Gal A injection in the GLA deficient mouse, tissue α-Gal A and GL-3; type: in vivo; conditions: 30, 100 or 300 mg/kg oral 30 min prior to and 2 hours after rhα-Gal A, vs rhα-Gal A alone
agalsidase alfa = target: T2, agalsidase alfa (Homo sapiens, UniProt P06280); test: In vitro thermal denaturation assay of agalsidase alfa; type: binding
T2 construct: purchased Shire Human Genetic Therapies (Replagal®)
T2 sequence (P06280 32-429): T1 sequence (P06280 32-429)
Experimental: The effect of migalastat hydrochloride on the physical stability of agalsidase alfa was evaluated with an in vitro thermal denaturation assay.

[3] = male GLA-deficient mice; 3 and 30 mg/kg three times a week for four weeks with Fabrazyme 1 mg/kg i.v. once a week
Experimental: A preliminary study in GLA deficient mice has been conducted evaluating the safety of co-administered migalastat hydrochloride and Fabrazyme®. Migalastat hydrochloride was administered three times a week for four weeks at doses of 3 and 30 mg/kg in combination with Fabrazyme® administered intravenously once a week at a dose of 1 mg/kg.

α-Gal A [4] = target: T3, α-Gal A (Homo sapiens, UniProt P06280); test: Phase 2 co-administration study: skin α-Gal A activity (4-MUG); type: in vivo
T3 construct: purchased Genzyme Corporation (Fabrazyme®)
T3 sequence (P06280 32-429): T1 sequence (P06280 32-429)
Experimental: α-Gal A Enzyme Levels in Skin. α-Gal A enzyme levels will be examined in skin biopsy samples. Skin biopsies will be done using a “punch” device. One piece will be removed at each visit. α-Gal A levels in skin will be determined by a validated assay measuring enzyme activity using 4-MUG, with and without Con A. α-Gal A protein levels will be measured by Western blotting using anti-human Gal A antibody.
(§1) Methods. The study was conducted according to the methods described in Example 1. Specifically, this was an open-label, single dose, non-randomized, fixed-sequence, 2-stage study. Stage 1 comprised of 3 periods: • (1) agalsidase beta 0.5 mg/kg or 1.0 mg/kg (infusion for about 2 hours) or agalsidase alpha 0.2 mg/kg (infusion for about 40 min.) enzyme replacement montherapy (ERT); • (2) ERT+150 mg migalastat oral tablet (single dose) co-administration, migalastat administered 2 hrs. prior to ERT; and • (3) 150 mg migalastat monotherapy.
(§2) α-Gal A catalyzes the initial step in breakdown of substrate GL-3 in vivo. α-Gal A also acts on other substrates with the same α-bond such as the artificial low-molecular weight florescent substrate, 4-MUG. α-Gal A activity on 4-MUG was measured in vitro from plasma, skin, and PBMC samples following serial dilutions to dissociate migalastat.
(§3) 6 patients with plasma, skin, and PBMC α-galactosidase A activity from Stage 1, Periods 1 and 2, were evaluated. Four patients received 0.5 mg/kg agalsidase beta ERT and 2 patients received 1.0 mg/kg agalsidase beta ERT during Period 1, and co-administration of 150 mg migalastat 2 hours prior to initiation of the same dose of ERT during Period 2.
(§4) Serial blood samples were taken to 24 hours post dose for plasma α-Gal A activity and protein levels each period. Blood samples for α-Gal A activity in peripheral blood mononuclear cells (PBMCs) were taken at predose and on Days 1, 2, 7, and 14 of each period. Punch biopsies for skin α-Gal A activity were taken at predose Period 1 and on Days 2 and 7 during Periods 1 and 2. Plasma α-Gal A activity PK parameters include Cmax, Tmax, AUC0-t, AUC0-inf, and t1/2. Pharmacokinetic parameters are calculated using standard non-compartmental procedures (WINNONLIN version 5.0 or higher).
(§5) α-Gal A activity in plasma skin, and PBMC lysates were measured by a fluorescence enzyme assay using 4-methylumbelliferyl-α-D-galactopyranoside (4-MUG). α-Gal A activity on 4 MUG was measured in vitro following serial dilutions to dissociate migalastat.

α-Gal A [5] = target: T3, α-Gal A; test: Phase 2 co-administration study: PBMC α-Gal A activity (4-MUG); type: in vivo; conditions: for individual patient increases in PBMC α-Gal A activity: 1 mg/kg
Experimental: WBC α-Gal A Levels. α-Gal A levels in WBCs will be determined in blood samples by a validated assay measuring enzyme activity using 4-MUG, with and without Con A. α-Gal A protein levels will be measured by Western blotting using anti-human Gal A antibody.
as §1, §2, §3, §4, §5

α-Gal A [6] = target: T3, α-Gal A; test: Phase 2 co-administration study: Western blot of plasma α-Gal A protein; type: in vivo; conditions: 5 out of 7 subjects
Experimental: Migalastat HCl and rhα-Gal A Pharmacokinetics. Concentrations of migalastat HCl in blood samples will be measured in plasma using a validated LC-MS/MS assay. α-Gal A levels in plasma will be determined by a validated assay measuring enzyme activity using 4-MUG, with and without Con A. α-Gal A protein levels will be measured by Western blotting using anti-human Gal A antibody.
Western blot analysis of α-Gal A protein were performed on plasma samples using anti-human α-Gal A antibody. An rhα-Gal A (agalsidase) standard curve was run to calculate the appropriate concentration of α-Gal protein in each sample.

[7] = Phase 2 co-administration study: safety; type: in vivo, human
Source text: Safety Parameters. Safety parameters will be assessed by review of changes in physical exam findings, vital signs, ECG changes over time, clinical labs and adverse events.
The safety parameters included adverse events (AEs), vital signs, clinical laboratory tests (hematology, serum chemistry, and urinalysis), electrocardiograms (ECGs), physical examinations, and use of concomitant medications.

α-Gal A [8] = target: T3, α-Gal A; test: Phase 2 co-administration study: skin α-Gal A activity (4-MUG); type: in vivo; conditions: 150 mg migalastat HCl + 0.5 mg/kg agalsidase beta, N=5 (Example 3)
α-Gal A [9] = target: T3, α-Gal A; test: Phase 2 co-administration study: PBMC α-Gal A activity (4-MUG); type: in vivo; conditions: 150 mg migalastat HCl + 0.5 mg/kg agalsidase beta, N=5 (Example 3)
[10] = cited from earlier work
[11] = cited from earlier work; remark: listed apart in the source
[12] = cited from earlier work; remark: listed apart in the source
[13] = 150 mg migalastat + 1.0 mg/kg agalsidase beta, Day 2, N=2
[14] = 150 mg migalastat + 1.0 mg/kg agalsidase beta, Day 7, N=2

OC[C@H]1NC[C@H](O)[C@@H](O)[C@H]1O [migalastat hydrochloride, (2R,3S,4R,5S)-2-(hydroxymethyl)piperidine-3,4,5-triol]
stabilization of rhα-Gal A (rhα-Gal A [1]): significant time- and concentration-dependent increases in stabilization | GL-3 levels in skin, heart, kidney, and plasma (rhα-Gal A [2]): dose-dependent reduction | tissue α-Gal A levels (rhα-Gal A [2]): dose-dependent increase | melting temperature (Tm) of agalsidase alfa (agalsidase alfa; pH 5.2, 10 μM migalastat hydrochloride): 68 °C | melting temperature (Tm) of agalsidase alfa (agalsidase alfa; pH 7.4, 10 μM migalastat hydrochloride): 59 °C | survival, clinical condition, hematology and clinical chemistry parameters [3]: no direct drug-related changes | individual patient increases in skin α-Gal A activity (α-Gal A [4]; 150 mg migalastat + 0.5 mg/kg agalsidase beta, Day 2 (Example 2), 0.5 mg/kg): 2.8 fold and 3.9 fold and 1.1 fold | mean increase in skin α-Gal A activity (α-Gal A [4]; 150 mg migalastat + 0.5 mg/kg agalsidase beta, Day 2, N=3 (Example 2)): 2.6 fold | change in skin α-Gal A activity from Period 1 (α-Gal A [4]; 150 mg migalastat + 0.5 mg/kg agalsidase beta, Day 7 (Example 2)): No change | individual patient increases in skin α-Gal A activity (α-Gal A [4]; 150 mg migalastat + 1.0 mg/kg agalsidase beta, Day 2, 1 mg/kg): 1.6 fold and 2.1 fold | mean increase in skin α-Gal A activity (α-Gal A [4]; [13]): 1.9 fold | individual patient increases in skin α-Gal A activity (α-Gal A [4]; 150 mg migalastat + 1.0 mg/kg agalsidase beta, Day 7, 1 mg/kg): 1.7 fold and 1.2 fold | mean increase in skin α-Gal A activity (α-Gal A [4]; [14]): 1.5 fold | patients with increased skin α-Gal A activity following co-administration (α-Gal A [4]; 150 mg migalastat + 0.5 or 1.0 mg/kg agalsidase beta, Day 7): 3 of 5 and four | individual patient increase range in PBMC α-Gal A activity (α-Gal A [5]; 150 mg migalastat + 0.5 mg/kg agalsidase beta, Day 2): 1.4-3.1 fold | mean increase in PBMC α-Gal A activity (α-Gal A [5]; 150 mg migalastat + 0.5 mg/kg agalsidase beta, Day 2, N=4 (Example 2)): 2.3 fold | individual patient increase range in PBMC α-Gal A activity (α-Gal A [5]; 150 mg migalastat + 0.5 mg/kg agalsidase beta, Day 7): 1.4-2.3 fold | mean increase in PBMC α-Gal A activity (α-Gal A [5]; 150 mg migalastat + 0.5 mg/kg agalsidase beta, Day 7, N=4 (Example 2)): 2.0 fold | individual patient increase range in PBMC α-Gal A activity (α-Gal A [5]; 150 mg migalastat + 0.5 mg/kg agalsidase beta, Day 14): 1.7-2.8 fold | mean increase in PBMC α-Gal A activity (α-Gal A [5]; 150 mg migalastat + 0.5 mg/kg agalsidase beta, Day 14, N=4 (Example 2)): 2.2 fold | individual patient increases in PBMC α-Gal A activity (α-Gal A [5]; 150 mg migalastat + 1.0 mg/kg agalsidase beta, Day 2): 1.1 fold and 2.5 fold | mean increase in PBMC α-Gal A activity (α-Gal A [5]; [13]): 1.8 fold | individual patient increases in PBMC α-Gal A activity (α-Gal A [5]; 150 mg migalastat + 1.0 mg/kg agalsidase beta, Day 7): 3.6 fold and 6.0 fold | mean increase in PBMC α-Gal A activity (α-Gal A [5]; [14]): 4.8 fold | individual patient increases in PBMC α-Gal A activity (α-Gal A [5]; 150 mg migalastat + 1.0 mg/kg agalsidase beta, Day 14): 1.7 fold and 5.4 fold | mean increase in PBMC α-Gal A activity (α-Gal A [5]; 150 mg migalastat + 1.0 mg/kg agalsidase beta, Day 14, N=2): 3.5 fold | plasma α-Gal A protein, Period 2 (co-administration)/Period 1 (ERT alone) AUC ratio (α-Gal A [6]): No change | safety and tolerability ([7]; co-administration of 150 mg migalastat HCl with agalsidase beta): generally safe and well-tolerated | adverse events (AEs) reported ([7]; seven subjects, to date, one serious (TIA, prior to dosing), all considered unrelated to study drug): 12 | mean increase in skin α-Gal A activity (α-Gal A [8]; Day 2): 2.6 fold | mean increase in skin α-Gal A activity (α-Gal A [8]; Day 7): 1.4 fold | mean increase in PBMC α-Gal A activity (α-Gal A [9]; Day 2): 2.4 fold | mean increase in PBMC α-Gal A activity (α-Gal A [9]; Day 7): 1.9 fold | mean increase in PBMC α-Gal A activity (α-Gal A [9]; Day 14): 2.1 fold

agalsidase alfa: recombinant α-Gal A enzyme replacement therapy (Replagal®, Shire Human Genetic Therapies)
melting temperature (Tm) of agalsidase alfa (agalsidase alfa; pH 5.2, enzyme alone): 58 °C | melting temperature (Tm) of agalsidase alfa (agalsidase alfa; pH 7.4, enzyme alone): approximately 51 °C | AUC versus dose ([10]; 0.1 to 0.4 mg/kg): linearly proportional to dose | IgE antibodies ([10]; 10-week study): No IgE antibodies were detected | patients who became IgG positive during the study ([10]; 10-week study): Two of 18 | Plasma GL-3 levels reduction ([10]; all dose groups, independent of dose and dosing frequency): approximately 50% | mean half life ([10]; doses 0.1 to 0.4 mg/kg agalsidase alfa, ERT naïve adult male Fabry patients): 56 to 76 min

agalsidase beta: recombinant α-Gal A enzyme replacement therapy (Fabrazyme®; Genzyme Corporation)
patients with decreased skin α-Gal A activity relative to baseline (α-Gal A [4]; agalsidase beta alone, 0.5 mg/kg infusion, Day 2): 2 | PBMC α-Gal A activity relative to baseline (α-Gal A [5]; agalsidase beta alone, all patients, all time points): increased | pharmacokinetics, dose linearity ([11]; AUC increasing and clearance decreasing disproportionally with dose): non-linear pharmacokinetics | AUC increase ([11]; dose increased from 0.3 mg/kg to 1 mg/kg): approximately 6 fold | AUC increase ([11]; dose increased from 1 mg/kg to 3 mg/kg): ~8 fold | maximal agalsidase concentrations and AUC values reduced, of baseline values ([12]; adult patients with the highest titers of IgG): up to 26% | patients who developed IgG antibodies ([12]; adult patients): 79% | patients who developed IgG antibodies ([12]; pediatric patients): 69%

— patent US20140219986A1, “DOSING REGIMENS FOR THE TREATMENT OF FABRY DISEASE” (AMICUS THERAPEUTICS ,INC., priority 2011, published 2014)
